Assay results reported in patent publication US12576155B2, “Senolytic and antiinflammatory prodrugs and methods of use thereof” (priority 2019, dated 2026).

Legend:
[1] = test system: replication-induced senescent mouse embryonic fibroblasts (MEFs) and their non-senescent counterparts; assay: SSK1 metabolism analysis (release of gemcitabine, LC-MS/MS); format: in vitro ADME; settings: 0.5 μM SSK1; senescent vs non-senescent MEFs; FIG. 1A
Method: To detect the release of gemcitabine from SSK1 in senescent and non-senescent cells, the metabolism analysis was performed as previous reported (Karampelas et al., Mol Pharmaceut 14, 674-685(2017)). Briefly, the senescent and non-senescent cells were incubated with 0.5 μM SSK1 in DMEM medium containing 10% FBS and 1% penicillin-streptomycin for the indicated time. Then the cells slightly washed with water for twice and then harvested. Cold methanol used to extract the compounds and samples were prepared after centrifugation. The concentration of gemcitabine was determined by LC-MS/MS analysis.

[2] = test system: GLB1 knockdown (shGLB1-1 and -2) senescent cells; assay: Cell viability of GLB1 knockdown senescent cells; format: cell-based; settings: SSK1 0.5 μM; shGLB1-1 and -2 vs shControl
Method: Plasmids used to interfere the expression of GLB1 with short hairpin RNAs (shRNAs) were obtained from Sigma MISSION shRNA. Genetic knockdown was performed according to the manufacturer's protocol.
Lentivirus production, collection, and infection were as described (Zhao et al., Cell Stem Cell 3, 475-479(2008)).
To test the viability of senescent and non-senescent cells treated with SSK1, cells were stained with a mixture of Hoechst 33342 and propidium iodide (PI) (CA1120, Solarbio) to distinguish living and dead cells. After treatment with the small molecules, the cell culture medium was removed, and the cells were washed once with PBS. Then, the cells were stained according to the manufacturer's protocol, where the final concentrations of Hoechst 33342 and PI were 5 μg/ml and 2 μg/ml in PBS buffer. The plate was incubated at 4° C. for 30 min and observed on a fluorescence microscope or automatic cell imaging system. Viable cells were quantified using a MD Image Xpress Micro XL (Molecular Devices).

p38 MAPK = assay: Western blotting of phos-p38 MAPK in senescent cells; format: cell-based, mouse; settings: 0.5 μM SSK1, after 36 hours of treatment
Method: Senescent NBF cells were plated and incubated overnight at 37° C. The cells were treated with 0.05 μM gemcitabine or 0.5 μM SSK1 prodrug for the indicated time. Before harvest, cells were washed twice with pre-cooled PBS buffer. Total protein was extracted with lysis buffer (50 mM Tris-HCl (pH 7.5), 137 mM sodium chloride, 1 mM EDTA, 1% Nonidet P-40, 10% glycerol, 0.1 mM sodium orthovanadate, 10 mM sodium pyrophosphate, 20 mM β-glycerophosphate, 50 mM sodium fluoride, 1 mM phenylmethylsulfonyl fluoride), and the protein concentrations were normalized using the BCA Protein Assay Kit (Pierce). Protein samples were mixed with protein loading buffer and incubated at 95° C. for 5 min. Western blotting was performed by using the following antibodies: phospho-specific p38 MAPK (Thr180/Tyr182) (Cell Signaling Technology, CST, catalog number 4511) and p38 (CST, catalog number 8690); phospho-histone H2A.X (Ser139) (CST, catalog number 9718) and histone H2A.X (CST, catalog number 7631). The β-tubulin protein level was also determined as the loading control by using the β-tubulin antibody (CST, catalog number 2128).

[3] = test system: human senescent fibroblasts induced by different stimuli; assay: Cell viability, senescent and non-senescent human embryonic fibroblasts (HEFs); format: cell-based
Method: Human embryonic skin fibroblasts (HEFs) were obtained as previously described. Briefly, human embryonic skin tissues, obtained from aborted tissue with informed patient consent, were minced with forceps and incubated in 1 mg/ml collagenase IV for 1-2 hours at 37° C. After enzyme treatment, cells were collected by centrifugation and resuspended in HEF medium (Dulbecco's modified Eagle's medium (DMEM, Gibco) containing 10% fetal bovine serum (FBS, Ausbian), 1% GlutaMAX (Gibco), 1% Non-Essential Amino Acids (NEAA, Gibco) and 1% penicillin/streptomycin (Gibco). Cells were plated on 10 cm tissue culture dishes and grown in 10% FBS DMEM.
For replication-induced senescence, cells were passaged until they lost the ability to proliferate and became senescent. NBFs were used as senescent cells after approximately 8-9 passages or 12 population doublings. HEFs were used after approximately 35 passages or 50 population doublings. HUVECs were senescent after approximately 18 passages or 24 population doublings.
For ionizing radiation-induced senescence, MEFs and HEFs were exposed to 10 Gy of ionizing irradiation in an RS 2000 X-ray Biological Irradiator (Rad Source Technologies, Inc.) at a dose rate of 1.205 Gy/min. The day after irradiation, MEFs or HEFs were passaged at a 1:3 dilution and cultured for another three days. Then these cells were plated to carry out further experiments.
For etoposide-induced senescence, MEFs were treated with 2 μM etoposide for 20 hours, and HEFs were treated with 10 μM etoposide for 12-18 hours. Three days after treatment, cells were sub-cultured at a 1:3 ratio for 72 hours in a fresh medium before further analysis.
To test the viability of senescent and non-senescent cells treated with SSK1, cells were stained with a mixture of Hoechst 33342 and propidium iodide (PI) (CA1120, Solarbio) to distinguish living and dead cells. […] The plate was incubated at 4° C. for 30 min and observed on a fluorescence microscope or automatic cell imaging system. Viable cells were quantified using a MD Image Xpress Micro XL (Molecular Devices).

[4] = Serum biochemical test and routine blood analysis in old mice (toxicity); format: in vivo
Method: All drugs were mixed in 90% PBS, 5% Tween-80 (P1754, Sigma), and 5% polyethylene glycol (PEG) (81172, Sigma) and administered to mice by intraperitoneal (i.p.) injection. […] […] Gemcitabine was purchased from MCE.
For blood routine examination, 50 μl fresh blood was collected from each mouse and mixed with EDTA immediately. The blood samples were analyzed by Celltac Alpha MEK-6400 series hematology analyzers (Nihon Kohden, MEK-6400). For serum biochemical analysis, blood samples were collected, clotted for 2 hours at room temperature or overnight at 4° C., and then centrifuged (1000 g, 10 min) to gain serum. 200 μl serum was aliquot and analyzed of Alanine transaminase (ALT), aspartate transaminase (AST), uric acid (UA) and creatinine (CREA) by Chemistry Analyzer (Mindray, BS-350E).

## CC(=O)OCC1O[C@@H](Oc2ccc(COC(=O)Nc3ccn([C@@H]4O[C@H](CO)C(O)C4(F)F)c(=O)n3)cc2[N+](=O)[O-])C(OC(C)=O)C(OC(C)=O)[C@H]1OC(C)=O (some centres unmarked) [SSK1]
[1]
  Metabolism of SSK1 into gemcitabine: specifically cleaved to release cytotoxic gemcitabine in senescent cells but not in non-senescent cells
[2]
  Effect of GLB1 knockdown on killing of senescent cells by SSK1: impaired the ability of SSK1 to kill SA-β-gal-positive senescent cells
p38 MAPK
  State of p38 MAPK (phosphorylation): activated p38 MAPK by phosphorylation
[3]; senescent HEFs induced by different stresses vs non-senescent counterparts
  Clearance of senescent cells: cleared by SSK1
[3]; vehicle or treated senescent HEFs, FIG. 2F
  Percentage of cell viability in senescent cell populations: dose dependent decrease of senescent cells
[4]; aged mice, high concentration (100 mg/kg) and high frequency, 5 weeks, 3 injections a week
  Systemic toxicities (serum biochemical test and routine blood analysis): no obvious systemic toxicities
[4]; following SSK1 treatment
  Apoptosis of β-gal positive epithelial tubular cells in the kidney: only a few cells of this tubular cell population was shown to be undergoing apoptosis
[4]; old mice, 0.5 mg/kg for 8 weeks, FIGS. 7A and B
  System toxicity (serum biochemical test and routine blood analysis): no obvious system toxicity
